IC50 data for 16 compounds are collected here from patent US20250136607A1 (REGOR PHARMACEUTICALS, INC., priority 2021, published 2025).

Test [1] deals with Protein arginine deiminase 4 (PAD4) (Homo sapiens, UniProt Q9UM07). In words: PAD4 ammonia release assay. The test is classed as biochemical. The procedure, abridged: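 Ammonia release from BAEE substrate (2× mix 600 μM) was measured after 60 min at RT, following 15 min enzyme–compound preincubation (PAD4 2× 20 nM; pH 8.0 HEPES, 2 mM CaCl2, TCEP; 1.25% DMSO). Detection used OPA/DTT/EDTA for 120 min. % inhibition was taken versus reference-compound and DMSO controls; IC50 by four-parameter logistic fit.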

Test [2] relates to Citrullinated Histone H3 in dHL-60 cells (differentiated HL-60). In words: dHL-60 Cit-H3 ELISA assay. As to conditions: read-out: Average IC50 Abs. The test is classed as cell-based, human. As for the experimental part:
Cell culture: HL-60 cells were grown in IMDM+20% FBS+1% PS. The suspension cells were split into 1:5 with fresh media every 2-3 days to maintain cell density between 1×10^5 to 1×10^6 viable cells/mL. HL-60 cells differentiation: HL-60 cells were diluted to 1×10^5 cells/mL and differentiated into neutrophil-like cells with 100 mM DMF treatment for 72 hours in flask at 37° C., 5% CO2. dHL-60 Cells plating: • 1) HL-60 cells were collected, and the plate was centrifuged at 1000 rpm for 5 min. • 2) The HL-60 cells were diluted to 1.25×10^6 cells/mL and plated into a 96-well plate with 80 μL/well (i.e., 1×10^5/well). The plate was then incubated in the incubator (5% CO2, 37° C.) for 30 min to allow cells to adhere. Compound treatment: • 1) Preparation of compound serial dilution (source plate 500×, final DMSO concentration: 0.2%): briefly, compounds were dissolved in 100% DMSO to a concentration of 20 mM (the stock solution) and a 3-fold serial dilution with 8-point doses was performed. • 2) A 10× compound solution was pipetted up and down; and 10 μL/well of compounds were added into each well and incubated for 30 min. Stimulation with 25 μM A23187: • 1) A solution of A23187 (250 μM) in complete IMDM (IMDM+10% FBS+1% PS) containing 150 U/mL S7 Nuclease was prepared. The obtained solution was added 10 μL/well into each well and incubated for 3 h in the incubator (5% CO2, 37° C.). • 2) The dHL-60 cells treated with 10 μL/well complete IMDM without A23187 worked as negative control. Sample preparation: • 1) EDTA (0.5 M, 2 μL/well) were added to all the wells to stop the reaction. • 2) The plate was centrifuged at 1000 rpm for 5 min to collect supernatant. • 3) The supernatant was then diluted at least 1:2 before adding to the ELISA plate for citrullinated H3 analysis.
The standard was reconstituted with 2 mL of Assay buffer to 500 ng/mL. The reconstituted standard was relatively unstable at 4° C. and should be used within 3 hr after reconstitution.
• 1) 100 μL of the standards or diluted samples were added to the wells on the ELISA plate. • 2) The plate was covered with Cover Sheet and incubated for 2 h at room temperaturert on an orbital shaker.
On the day of the assay, the reagent was thawed at room temperaturert. For one plate, 1.2 mL of HRP Conjugate were diluted into 10.8 mL of assay buffer. A diluted HRP Conjugate was prepared shortly before use.
• 1) The wells were empties and rinsed four times with 1× wash buffer with 300 μL/well (Low speed). The plate was inverted between wash steps to empty the plate. After the last wash, the inverted plate was gently tapped on absorbent paper to remove the residual wash buffer. • 2) 100 μL of the HRP Conjugate working solution were added to each well of the plate. • 3) The plate was covered with cover sheet and incubated for 1 h at RT on an orbital shaker.
• 1) The wells were empties and rinsed four times with 1× wash buffer with 300 μL/well (low speed). The plate was inverted between wash steps to empty the plate. […] 100 uL of HRP STOP solution were added to each well of the plate.
• 1) Wipe the bottom of the plate with a clean tissue to remove fingerprints, dirt, etc. • 2) Read the plate at a wavelength of 450 nm.
The percent (%) inhibition at each concentration of compound was calculated based on and relative to the signal in the HPE and ZPE wells contained within each assay plate. The HPE wells worked as […], and the ZPE wells didn't contain any compound but rather DMSO (final concentration=0.1%) as […]. The concentrations and % inhibition values for tested compounds were plotted and the concentration of compound required for 50% inhibition (IC50) was determined with a Four-parameter logistic dose response equation. The endpoint value (IC50) for the reference peptide/compound was evaluated in each experiment as a quality control measure. If the endpoint value is within 3-fold of the expected value then the experiment is deemed acceptable. […]
For orientation: ELISA stands for enzyme-linked immunosorbent assay.

Where [3] appears, read: PAD4 ammonia release assay, BAEE substrate, 60 min at RT, read-out: Average IC50 Abs.
Where [4] appears, read: Homo sapiens, HL-60, 3 h, stimulation with 25 μM A23187 for 3 h.
Setting [5] is: Homo sapiens, HL-60, stimulation with 25 μM A23187 for 3 h.

Like-named read-outs stand apart in the source and are kept apart here.

Sequence of Protein arginine deiminase 4 (PAD4) (Q9UM07 whole entry): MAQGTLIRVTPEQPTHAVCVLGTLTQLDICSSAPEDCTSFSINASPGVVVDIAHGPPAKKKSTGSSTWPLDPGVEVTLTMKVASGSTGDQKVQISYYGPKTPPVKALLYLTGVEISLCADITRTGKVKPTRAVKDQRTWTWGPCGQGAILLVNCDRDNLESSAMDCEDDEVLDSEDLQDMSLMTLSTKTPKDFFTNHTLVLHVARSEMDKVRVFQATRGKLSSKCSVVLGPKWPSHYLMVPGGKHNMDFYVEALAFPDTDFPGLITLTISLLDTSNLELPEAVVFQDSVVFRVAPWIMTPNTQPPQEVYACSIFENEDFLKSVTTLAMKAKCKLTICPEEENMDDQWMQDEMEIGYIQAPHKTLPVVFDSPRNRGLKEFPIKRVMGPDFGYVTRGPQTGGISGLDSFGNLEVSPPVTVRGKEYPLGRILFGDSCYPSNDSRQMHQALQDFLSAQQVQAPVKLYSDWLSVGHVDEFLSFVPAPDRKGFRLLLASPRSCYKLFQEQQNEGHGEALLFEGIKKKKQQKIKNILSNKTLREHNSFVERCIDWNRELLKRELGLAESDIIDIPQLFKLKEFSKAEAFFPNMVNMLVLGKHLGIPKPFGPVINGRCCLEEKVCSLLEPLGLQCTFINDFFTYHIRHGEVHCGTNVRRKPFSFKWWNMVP

On to `Cn1c(-c2cc3cccc4c3n2C(C2CC2)CN4CCCO)nc2cc(C(=O)N3C[C@H]4CC[C@@H]3[C@@H]4N)cc(F)c21` (mixture of isomers) [Example 111, [(1R,4R,7R)-7-amino-2-azabicyclo[2.2.1]heptan-2-yl]-[2-[11-cyclopropyl-9-(3-hydroxypropyl)-1,9-diazatricyclo[6.3.1.04,12]dodeca-2,4(12), 5,7-tetraen-2-yl]-7-fluoro-1-methyl-benzimidazol-5-yl]methanone], for which the 50% inhibitory concentration (IC50) in test [1] (setting [3]) and in test [2] (setting [4]) was not above 100 nM throughout.

Turning to `Cn1c(-c2cc3ccc(C#N)c4c3n2C(C2CC2)CN4)nc2cc(C(=O)N3C[C@H]4CC[C@@H]3[C@@H]4N)cc(F)c21` (mixture of isomers) [Example 114, 5-(5-((1R,4R,7R)-7-amino-2-azabicyclo[2.2.1]heptane-2-carbonyl)-7-fluoro-1-methyl-1H-benzo[d]imidazol-2-yl)-3-cyclopropyl-2,3-dihydro-1H-pyrrolo[1,2,3-de]quinoxaline-9-carbonitrile], the IC50 in test [1] (setting [3]) and in test [2] (setting [4]) was not above 100 nM in each case.

Regarding `CCC1CN(CCCO)c2cccc3cc(-c4nc5cc(C(=O)N6C[C@H](N)C[C@@H](F)C6)cc(OC)c5n4C)n1c23` (single isomer, unassigned) [Example 81], the concentration for half-maximal inhibition (IC50) (commonly the midpoint of a concentration-inhibition curve) in test [1] (setting [3]) is 500 to 5000 nM; in test [2] (stimulation with 25 μM A23187 for 3 h) it was more than 5000 nM.

On to `Cn1c(-c2cc3cccc4c3n2[C@@H](C2CC2)CN4)nc2cc(C(=O)N3C[C@H]4CC[C@@H]3[C@@H]4N)cc(F)c21` (single isomer, unassigned) [Example 110], for which the concentration for half-maximal inhibition (IC50) in test [1] (setting [3]) and in test [2] (setting [4]) was not above 100 nM in each case.

Regarding `Cn1c(-c2cc3cccc4c3n2[C@@H](C2CC2)CN4CCCO)nc2cc(C(=O)N3C[C@H]4CC[C@@H]3[C@@H]4N)cc(F)c21` (single isomer, unassigned) [Example 112], the IC50 in test [1] (setting [3]) and in test [2] (setting [4]) was not above 100 nM throughout.

On to `Cn1c(-c2cc3ccc(C#N)c4c3n2[C@@H](C2CC2)CN4)nc2cc(C(=O)N3C[C@H]4CC[C@@H]3[C@@H]4N)cc(F)c21` (single isomer, unassigned) [Example 115], for which the half-inhibitory concentration (IC50) in test [1] (setting [3]) and in test [2] (setting [4]) was not above 100 nM throughout.

Consider `COc1cc(C(=O)N2CCC[C@@H](N)C2)cc2nc(-c3cc4cccc5c4n3CCN5)n(C)c12` [Example 2, (R)-(3-aminopiperidin-1-yl)(2-(2,3-dihydro-1H-pyrrolo[1,2,3-de]quinoxalin-5-yl)-7-methoxy-1-methyl-1H-benzo[d]imidazol-5-yl)methanone], for which the IC50 is 5430 nM in test [1] (PAD4 activity comparison, read-out: PAD4 Ammonia assay IC50); more than 5000 nM in test [1] (setting [3]); 500 to 5000 nM in test [2] (setting [4]).

As for `COc1cc(C(=O)N2CCC[C@@H](N)C2)cc2nc(-c3cc4cccc5c4n3CCN5CCO)n(C)c12` [Example 10, (R)-(3-aminopiperidin-1-yl)(2-(1-(2-hydroxyethyl)-2,3-dihydro-1H-pyrrolo[1,2,3-de]quinoxalin-5-yl)-7-methoxy-1-methyl-1H-benzo[d]imidazol-5-yl)methanone], the IC50 in test [1] (setting [3]) and in test [2] (setting [5]) was 500 to 5000 nM in each case.

Consider `COc1cc(C(=O)N2CCC[C@@H](N)C2)cc2nc(-c3cc4cccc5c4n3CCN5CCCO)n(C)c12` [Example 12, (R)-(3-aminopiperidin-1-yl)(2-(1-(3-hydroxypropyl)-2,3-dihydro-1H-pyrrolo[1,2,3-de]quinoxalin-5-yl)-7-methoxy-1-methyl-1H-benzo[d]imidazol-5-yl)methanone], for which the IC50 in test [1] (setting [3]) was 100 to 500 nM; in test [2] (setting [4]), 500 to 5000 nM.

With `COc1cc(C(=O)N2C[C@H](N)C[C@@H](F)C2)cc2nc(-c3cc4cccc5c4n3CCN5CCCO)n(C)c12` [Example 13], the results for the IC50 in test [1] (setting [3]) and in test [2] (setting [4]) were 100 to 500 nM and 500 to 5000 nM, respectively.

On to `COc1cc(C(=O)N2C[C@H](N)C[C@@H](F)C2)cc2nc(-c3cc4cccc5c4n3CCN5CCCO)n(CC(F)(F)F)c12` [Example 23, ((3R,5R)-3-amino-5-fluoropiperidin-1-yl)(2-(1-(3-hydroxypropyl)-2,3-dihydro-1H-pyrrolo[1,2,3-de]quinoxalin-5-yl)-7-methoxy-1-(2,2,2-trifluoroethyl)-1H-benzo[d]imidazol-5-yl)methanone], for which the IC50 in test [1] (setting [3]) and in test [2] (setting [4]) was 100 to 500 nM each time.

`CCn1cc(Cn2c(-c3cc4cccc5c4n3CCN5CCCO)nc3cc(C(=O)N4C[C@H](N)C[C@@H](F)C4)cc(OC)c32)cn1` [Example 34, ((3R,5R)-3-amino-5-fluoropiperidin-1-yl)(1-((1-ethyl-1H-pyrazol-4-yl)methyl)-2-(1-(3-hydroxypropyl)-2,3-dihydro-1H-pyrrolo[1,2,3-de]quinoxalin-5-yl)-7-methoxy-1H-benzo[d]imidazol-5-yl)methanone]: the concentration for half-maximal inhibition (IC50) is not above 100 nM in test [1] (setting [3]) and 500 to 5000 nM in test [2] (setting [5]).

For `COc1cc(C(=O)N2C[C@H](N)C[C@@H](F)C2)cc2nc(-c3cc4cccc5c4n3CCN5CCCO)n(Cc3cccs3)c12` [Example 37, ((3R,5R)-3-amino-5-fluoropiperidin-1-yl)(2-(1-(3-hydroxypropyl)-2,3-dihydro-1H-pyrrolo[1,2,3-de]quinoxalin-5-yl)-7-methoxy-1-(thiophen-2-ylmethyl)-1H-benzo[d]imidazol-5-yl)methanone], the values for the half-inhibitory concentration (IC50) in test [1] (setting [3]) and in test [2] (setting [4]) were not above 100 nM and 100 to 500 nM, respectively.

As for `CCn1cc(Cn2c(-c3cc4cccc5c4n3CCN5CCCO)nc3cc(C(=O)N4C[C@H](N)C[C@@H](F)C4)cc(F)c32)cn1` [Example 38, ((3R,5R)-3-amino-5-fluoropiperidin-1-yl)(1-((1-ethyl-1H-pyrazol-4-yl)methyl)-7-fluoro-2-(1-(3-hydroxypropyl)-2,3-dihydro-1H-pyrrolo[1,2,3-de]quinoxalin-5-yl)-1H-benzo[d]imidazol-5-yl)methanone], the IC50 in test [1] (setting [3]) is not above 100 nM; in test [2] (setting [4]), 500 to 5000 nM.

Consider `CCn1cc(Cn2c(-c3cc4cccc5c4n3CCN5)nc3cc(C(=O)N4C[C@H](N)C[C@@H](F)C4)cc(F)c32)cn1` [Example 40, ((3R,5R)-3-amino-5-fluoropiperidin-1-yl)(2-(2,3-dihydro-1H-pyrrolo[1,2,3-de]quinoxalin-5-yl)-1-((1-ethyl-1H-pyrazol-4-yl)methyl)-7-fluoro-1H-benzo[d]imidazol-5-yl)methanone], for which the IC50 in test [1] (setting [3]) lay within 100 to 500 nM; in test [2] (setting [4]) it was 500 to 5000 nM.

Take `CCn1cc(Cn2c(-c3cc4cccc5c4n3CCN5CCCO)nc3cc(C(=O)N4C[C@H]5CC[C@@H]4[C@@H]5N)cc(F)c32)cn1` [Example 42, ((1R,4R,7R)-7-amino-2-azabicyclo[2.2.1]heptan-2-yl)(1-((1-ethyl-1H-pyrazol-4-yl)methyl)-7-fluoro-2-(1-(3-hydroxypropyl)-2,3-dihydro-1H-pyrrolo[1,2,3-de]quinoxalin-5-yl)-1H-benzo[d]imidazol-5-yl)methanone]: the IC50 lay in the range of 100 to 500 nM in test [1] (setting [3]) and 500 to 5000 nM in test [2] (setting [4]).
